The subject of test [1] is Escherichia coli EC-1: VOGEL, mouse virulent. As to the kind of experiment: MIC determination (CLSI), strain EC-1. Type of test: cell-based. To be noted: strain EC-1; unit assumed. In short, it runs like this: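 The mouse-virulent VOGEL isolate of E. coli, EC-1, served as test organism. Minimum inhibitory concentration was measured by CLSI dilution methodology (M7-A7; M100-S18 standards).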

Test [2] concerns Pseudomonas aeruginosa UI-18: Wild-type (PA-7). As to the kind of experiment: MIC determination (CLSI), strain PA-7. Type of test: cell-based. To be noted: strain PA-7; unit assumed. In short, it runs like this:
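Strain tested was P. aeruginosa UI-18, a wild-type isolate labelled PA-7. Minimum inhibitory concentrations followed CLSI dilution methodology for aerobically growing bacteria (M7-A7, M100-S18).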

A value given as a limit tells only on which side of the number the result lay.

Regarding `Cc1c(-c2ccc(OC(F)F)cc2)ccn(CC[C@](C)(C(=O)NO)S(C)(=O)=O)c1=O` [Example 399, (2R)-4-{4-[4-(difluoromethoxy)phenyl]-3-methyl-2-oxopyridin-1(2H)-yl}-N-hydroxy-2-methyl-2-(methylsulfonyl)butanamide], the EC-1 (MIC) in test [1] amounted to 0.5 µg/mL. In addition, in test [2], the PA-7 (MIC) is 1 µg/mL.

`C[C@@](CCn1ccc(-c2ccc(-c3ccncn3)cc2)cc1=O)(C(=O)NO)S(C)(=O)=O` [Example 400, (2R)-N-hydroxy-2-methyl-2-(methylsulfonyl)-4-[2-oxo-4-(4-pyrimidin-4-ylphenyl)pyridin-1(2H)-yl]butanamide] returned an EC-1 (MIC) in test [1] of 1 µg/mL. This compound gave a PA-7 (MIC) in test [2] of 2 µg/mL.

`C[C@@](CCn1ccc(-c2ccc(-n3ncc[n+]3[O-])cc2)cc1=O)(C(=O)NO)S(C)(=O)=O` [Example 401, (2R)-N-hydroxy-2-methyl-2-(methylsulfonyl)-4-{4-[4-(1-oxido-2H-1,2,3-triazol-2-yl)phenyl]-2-oxopyridin-1(2H)-yl}butanamide] showed an EC-1 (MIC) in test [1] of 8 µg/mL. Moreover, in test [2], the PA-7 (MIC) was 8 µg/mL.

Turning to `C[C@@](CCn1ccc(-c2ccc(-c3ccncc3)cc2)cc1=O)(C(=O)NO)S(C)(=O)=O` [Example 402, (2R)-N-hydroxy-2-methyl-2-(methylsulfonyl)-4-[2-oxo-4-(4-pyridin-4-ylphenyl)pyridin-1(2H)-yl]butanamide], in test [1], the EC-1 (MIC) is 0.5 µg/mL. Besides, the PA-7 (MIC) in test [2] came out at 2 µg/mL.

For `COCCOCCOc1ccc(-c2ccn(CC[C@](C)(C(=O)NO)S(C)(=O)=O)c(=O)c2)cc1` [Example 403, (2R)-N-hydroxy-4-[4-{4-[2-(2-methoxyethoxy)ethoxy]phenyl}-2-oxopyridin-1(2H)-yl]-2-methyl-2-(methylsulfonyl)butanamide], the EC-1 (MIC) in test [1] is 1 µg/mL. This compound also gave a PA-7 (MIC) in test [2] of 4 µg/mL.

The compound `CCOc1ncc(-c2ccn(CC[C@](C)(C(=O)NO)S(C)(=O)=O)c(=O)c2)cn1` [Example 404, (2R)-4-[4-(2-ethoxypyrimidin-5-yl)-2-oxopyridin-1(2H)-yl]-N-hydroxy-2-methyl-2-(methylsulfonyl)butanamide] gave an EC-1 (MIC) in test [1] greater than 64 µg/mL. Also, in test [2], the PA-7 (MIC) was greater than 64 µg/mL.

`C[C@@](CCn1ccc(-c2ccc(-c3cscn3)cc2)cc1=O)(C(=O)NO)S(C)(=O)=O` [Example 405, (2R)-N-hydroxy-2-methyl-2-(methylsulfonyl)-4-{2-oxo-4-[4-(1,3-thiazol-4-yl)phenyl]pyridin-1(2H)-yl}butanamide]: the EC-1 (MIC) in test [1] came to 0.125 µg/mL. This compound came in with a PA-7 (MIC) in test [2] of 1 µg/mL.

Turning to `C[C@@](CCn1ccc(-c2ccc(-c3cncs3)cc2)cc1=O)(C(=O)NO)S(C)(=O)=O` [Example 406, (2R)-N-hydroxy-2-methyl-2-(methylsulfonyl)-4-{2-oxo-4-[4-(1,3-thiazol-5-yl)phenyl]pyridin-1(2H)-yl}butanamide], in test [1], the EC-1 (MIC) was found to be 0.25 µg/mL. In test [2], this compound gave a PA-7 (MIC) of 0.5 µg/mL.

Regarding `C[C@@](CCn1ccc(-c2ccc(-n3ncc(O)n3)cc2)cc1=O)(C(=O)NO)S(C)(=O)=O` [Example 407, (2R)-N-hydroxy-4-{4-[4-(4-hydroxy-2H-1,2,3-triazol-2-yl)phenyl]-2-oxopyridin-1(2H)-yl}-2-methyl-2-(methylsulfonyl)butanamide], in test [1], the EC-1 (MIC) was determined as 16 µg/mL. In test [2], this compound returned a PA-7 (MIC) of 32 µg/mL.

The compound `C[C@@](CCn1ccc(-c2ccc(-c3cc(CO)no3)cc2)cc1=O)(C(=O)NO)S(C)(=O)=O` [Example 408, (2R)-N-hydroxy-4-[4-{4-[3-(hydroxymethyl)isoxazol-5-yl]phenyl}-2-oxopyridin-1(2H)-yl]-2-methyl-2-(methylsulfonyl)butanamide] displayed an EC-1 (MIC) in test [1] of 8 µg/mL. Also, the PA-7 (MIC) in test [2] worked out at 8 µg/mL.

In test [1], `CN(C)c1ncc(-c2ccc(-c3ccn(CC[C@](C)(C(=O)NO)S(C)(=O)=O)c(=O)c3)cc2)cn1` [Example 409, (2R)-4-[4-{4-[2-(dimethylamino)pyrimidin-5-yl]phenyl}-2-oxopyridin-1(2H)-yl]-N-hydroxy-2-methyl-2-(methylsulfonyl)butanamide] returned an EC-1 (MIC) of 0.5 µg/mL. The PA-7 (MIC) in test [2] was 2 µg/mL.

In test [1], `COc1ncc(-c2ccc(-c3ccn(CC[C@](C)(C(=O)NO)S(C)(=O)=O)c(=O)c3)cc2)cn1` [Example 410, (2R)-N-hydroxy-4-{4-[4-(2-methoxypyrimidin-5-yl)phenyl]-2-oxopyridin-1(2H)-yl}-2-methyl-2-(methylsulfonyl)butanamide] showed an EC-1 (MIC) of 0.5 µg/mL. Further, the PA-7 (MIC) in test [2] was 1 µg/mL.

On to `C[C@@](CCn1ccc(-c2ccc(-c3ccno3)cc2)cc1=O)(C(=O)NO)S(C)(=O)=O` [Example 411, (2R)-N-hydroxy-4-[4-(4-isoxazol-5-ylphenyl)-2-oxopyridin-1(2H)-yl]-2-methyl-2-(methylsulfonyl)butanamide], for which the EC-1 (MIC) in test [1] worked out at 0.5 µg/mL. Further, the PA-7 (MIC) in test [2] was determined as 0.5 µg/mL.

In test [1], `Cc1c(-c2ccc(C#N)cc2F)ccn(CC[C@](C)(C(=O)NO)S(C)(=O)=O)c1=O` [Example 412, (2R)-4-[4-(4-cyano-2-fluorophenyl)-3-methyl-2-oxopyridin-1(2H)-yl]-N-hydroxy-2-methyl-2-(methylsulfonyl)butanamide] showed an EC-1 (MIC) of 8 µg/mL. The same compound showed a PA-7 (MIC) in test [2] of 4 µg/mL.

`Cc1c(-c2cccc(Cl)c2F)ccn(CC[C@](C)(C(=O)NO)S(C)(=O)=O)c1=O` [Example 413, (2R)-4-[4-(3-chloro-2-fluorophenyl)-3-methyl-2-oxopyridin-1(2H)-yl]-N-hydroxy-2-methyl-2-(methylsulfonyl)butanamide] yielded an EC-1 (MIC) in test [1] of 2 µg/mL. Moreover, in test [2], the PA-7 (MIC) stood at 2 µg/mL.

`Cc1c(-c2cccc(Cl)c2Cl)ccn(CC[C@](C)(C(=O)NO)S(C)(=O)=O)c1=O` [Example 414, (2R)-4-[4-(2,3-dichlorophenyl)-3-methyl-2-oxopyridin-1(2H)-yl]-N-hydroxy-2-methyl-2-(methylsulfonyl)butanamide] gave an EC-1 (MIC) in test [1] of 2 µg/mL. This compound returned a PA-7 (MIC) in test [2] of 8 µg/mL.

The compound `C[C@@](CCn1ccc(-c2ccc(-c3ccc(C#N)nc3)cc2)cc1=O)(C(=O)NO)S(C)(=O)=O` [Example 415] came in with an EC-1 (MIC) in test [1] of 1 µg/mL. The compound further displayed a PA-7 (MIC) in test [2] of 2 µg/mL.

For `Cc1nnn(-c2ccc(-c3ccn(CC[C@](C)(C(=O)NO)S(C)(=O)=O)c(=O)c3)cc2)c1C` [Example 416, (2R)-4-{4-[4-(4,5-dimethyl-1H-1,2,3-triazol-1-yl)phenyl]-2-oxopyridin-1(2H)-yl}-N-hydroxy-2-methyl-2-(methylsulfonyl)butanamide], the EC-1 (MIC) in test [1] was found to be 64 µg/mL. The PA-7 (MIC) in test [2] was found to be 32 µg/mL.

For `C[C@@](CCn1ccc(-c2ccc(-c3ncno3)cc2)cc1=O)(C(=O)NO)S(C)(=O)=O` [Example 417, (2R)-N-hydroxy-2-methyl-2-(methylsulfonyl)-4-{4-[4-(1,2,4-oxadiazol-5-yl)phenyl]-2-oxopyridin-1(2H)-yl}butanamide], the EC-1 (MIC) in test [1] turned out to be 8 µg/mL. In test [2], this compound had a PA-7 (MIC) of 64 µg/mL.

The compound `C[C@@](CCn1ccc(-c2ccc(CO)nc2)cc1=O)(C(=O)NO)S(C)(=O)=O` [Example 418, (2R)-N-hydroxy-4-[6-(hydroxymethyl)-2′-oxo-3,4′-bipyridin-1′(2′H)-yl]-2-methyl-2-(methylsulfonyl)butanamide] registered an EC-1 (MIC) in test [1] greater than 64 µg/mL. Moreover, the PA-7 (MIC) in test [2] was determined as 64 µg/mL.

(Values after patent US8846933B2, “N-link hydroxamic acid derivatives useful as antibacterial agents” (Pfizer Inc., priority 2009, dated 2014).)
